Results as given in EP0517262A1, “Trifluorothymidine derivatives, process for producing the same and anti-cancer agent containing the same” (priority 1991, dated 1992).

Columns and labels:
[1] = Pharmacological Test 1: body weight change of the tumor-bearing mice; conditions: day 1 - day 7, female CDF1 mice with Meth A fibrosarcoma
Source text: (§1) Female CDF₁ mice of 6 weeks old were used. As the tumor, Meth A fibrosarcoma was used.
(§2) To the right abdomen of each mouse, 2 x 10⁶ tumor cells were subcutaneously transplanted. On the next day (day 1), the mice were randomly grouped and the suspension was compulsively administered to the mice by using an oral sound for successive 7 days (day 1 - day 7).

[2] = test system: Meth A fibrosarcoma; assay: Pharmacological Test 1 (anti-cancer activity): tumor weight ratio T/C of subcutaneously transplanted tumor; type: in vivo, mice; conditions: Mus musculus, 336 h
Procedure: as §1, §2
On day 14, the tumors were removed and weighed. The tumor growth ratio (%) was calculated according to the following equation: Tumor Growth Ratio (%) = T/C x 100 [formula] wherein T means the average weight of tumor of the treated group and C means the average weight of tumor of the control group.

[3] = test system: adenocarcinoma-755; conditions: experimental model tumor; Cancer Research, Vol. 24, p.1979, 1964; cited from earlier work
[4] = test system: L1210 leukemia; conditions: experimental model tumor; Cancer Research, Vol. 24, p.1979, 1964; cited from earlier work
[5] = cited from earlier work
[6] = po, read-out: Tumor Weight Ratio (T/C : %)

## C#CCO[C@H]1C[C@H](n2cc(C(F)(F)F)c(=O)[nH]c2=O)O[C@@H]1CO[Si](C)(C)C(C)(C)C [Example 1, 5'-O-(t-butyldimethylsilyl)-3'-O-propargyl-α,α,α-trifluorothymidine]
[1]; 13.4 mg/kg oral
  Body Weight Change: -0.3 g
[1]; 53.7 mg/kg oral
  Body Weight Change: -4.9 g
[2]; [6]
  response vs control in vivo at 13.4 mg/kg: 67%
  response vs control in vivo at 53.7 mg/kg: 33%

## C#CCO[C@H]1C[C@H](n2cc(C(F)(F)F)c(=O)[nH]c2=O)O[C@@H]1CO [Example 2, 3'-O-propargyl-α,α,α-trifluorothymidine]
[1]; 17.3 mg/kg oral
  Body Weight Change: -0.5 g
[1]; 51.9 mg/kg oral
  Body Weight Change: -4.9 g
[2]; 17.3 mg/kg oral, day 1 - day 7, tumors weighed on day 14
  response vs control in vivo at 17.3 mg/kg: 16.6%
[2]; 51.9 mg/kg oral, day 1 - day 7, tumors weighed on day 14
  response vs control in vivo at 51.9 mg/kg: 7.7%

## C#CCO[C@H]1C[C@H](n2cc(C(F)(F)F)c(=O)n(C(=O)c3ccccc3)c2=O)O[C@@H]1CO [Example 6, 3-benzoyl-3'-O-propargyl-α,α,α-trifluorothymidine]
[1]; 22.7 mg/kg oral
  Body Weight Change: -3.8 g
[1]; 68.1 mg/kg oral
  Body Weight Change: -4.7 g
[2]; 22.7 mg/kg oral, day 1 - day 7, tumors weighed on day 14
  response vs control in vivo at 22.7 mg/kg: 28.3%
[2]; 68.1 mg/kg oral, day 1 - day 7, tumors weighed on day 14
  response vs control in vivo at 68.1 mg/kg: 2.6%

## C#CCO[C@H]1C[C@H](n2cc(C(F)(F)F)c(=O)[nH]c2=O)O[C@@H]1CO[Si](C)(C)C(C)C [Example 7, 5'-O-isopropyldimethylsilyl-3'-O-propargyl-α,α,α-trifluorothymidine]
[1]; 26.0 mg/kg oral
  Body Weight Change: -0.2 g
[1]; 52.0 mg/kg oral
  Body Weight Change: -4.0 g
[2]; [6]
  response vs control in vivo at 26 mg/kg: 38%
  response vs control in vivo at 52 mg/kg: 25%

## C#CCO[C@H]1C[C@H](n2cc(C(F)(F)F)c(=O)[nH]c2=O)O[C@@H]1COC(=O)CN1CCN(CCCCCCCCC)CC1.Cl.Cl [Example 11, 5'-O-{2-(4-nonylpiperazin-1-yl)acetyl}-3'-O-propargyl-α,α,α-trifluorothymidine dihydrochloride]
[1]; 37.0 mg/kg oral
  Body Weight Change: 0.6 g
[1]; 75.0 mg/kg oral
  Body Weight Change: -2.7 g
[2]; 37.0 mg/kg oral, day 1 - day 7, tumors weighed on day 14
  response vs control in vivo at 37 mg/kg: 58%
[2]; 75.0 mg/kg oral, day 1 - day 7, tumors weighed on day 14
  response vs control in vivo at 75 mg/kg: 31%

## C#CCO[C@H]1C[C@H](n2cc(C(F)(F)F)c(=O)[nH]c2=O)O[C@@H]1CO[Si](CC)(CC)CC [Example 13, 5'-O-(triethylsilyl)-3'-O-propargyl-α,α,α-trifluorothymidine]
[1]; 27.0 mg/kg oral
  Body Weight Change: 0.8 g
[1]; 54.0 mg/kg oral
  Body Weight Change: -2.9 g
[2]; [6]
  response vs control in vivo at 27 mg/kg: 57%
  response vs control in vivo at 54 mg/kg: 37%

## C#CCO[C@H]1C[C@H](n2cc(C(F)(F)F)c(=O)[nH]c2=O)O[C@@H]1COC(=O)[C@@H]1CCCN1CCCCCCCCCCCC.Cl [Example 14, 5'-O-(N-dodecyl-L-prolyl)-3'-O-propargyl-α,α,α-trifluorothymidine hydrochloride]
[1]; 38.0 mg/kg oral
  Body Weight Change: -0.2 g
[1]; 76.0 mg/kg oral
  Body Weight Change: -4.7 g
[2]; 38.0 mg/kg oral, day 1 - day 7, tumors weighed on day 14
  response vs control in vivo at 38 mg/kg: 32%
[2]; 76.0 mg/kg oral, day 1 - day 7, tumors weighed on day 14
  response vs control in vivo at 76 mg/kg: 15%

## C#CCO[C@H]1C[C@H](n2cc(C(F)(F)F)c(=O)[nH]c2=O)O[C@@H]1COC(=O)CCCCCCCCCCCCCCCCC [Example 29]
[1]; 18.0 mg/kg oral
  Body Weight Change: -1.2 g
[1]; 71.9 mg/kg oral
  Body Weight Change: -6.9 g
[2]; 18.0 mg/kg oral, day 1 - day 7, tumors weighed on day 14
  response vs control in vivo at 18 mg/kg: 52%
[2]; 71.9 mg/kg oral, day 1 - day 7, tumors weighed on day 14
  response vs control in vivo at 71.9 mg/kg: 21%

## C#CCO[C@H]1C[C@H](n2cc(C(F)(F)F)c(=O)n(C(=O)c3ccc(OC)cc3)c2=O)O[C@@H]1CO [Example 45]
[1]; 28.0 mg/kg oral
  Body Weight Change: 1.3 g
[1]; 84.1 mg/kg oral
  Body Weight Change: -4.5 g
[2]; 28.0 mg/kg oral, day 1 - day 7, tumors weighed on day 14
  response vs control in vivo at 28 mg/kg: 64.6%
[2]; 84.1 mg/kg oral, day 1 - day 7, tumors weighed on day 14
  response vs control in vivo at 84.1 mg/kg: 6.9%

## C#CCO[C@H]1C[C@H](n2cc(C(F)(F)F)c(=O)n(C(=O)c3ccco3)c2=O)O[C@@H]1CO [Example 47]
[1]; 25.6 mg/kg oral
  Body Weight Change: 0.7 g
[1]; 76.9 mg/kg oral
  Body Weight Change: -4.4 g
[2]; 25.6 mg/kg oral, day 1 - day 7, tumors weighed on day 14
  response vs control in vivo at 25.6 mg/kg: 90.3%
[2]; 76.9 mg/kg oral, day 1 - day 7, tumors weighed on day 14
  response vs control in vivo at 76.9 mg/kg: 21.7%

## O=c1[nH]c(=O)n([C@H]2C[C@H](O)[C@@H](CO)O2)cc1C(F)(F)F [Example F3Thd, Trifluorothymidine]
[3]
  anti-tumor activity: excellent anti-tumor activity
[4]
  anti-tumor activity: excellent anti-tumor activity
[5]; in vivo
  metabolism in the body: rapidly metabolized in the body
[5]; oral administration
  absorption when administered orally: not well absorbed when administered orally
